From PubChem BioAssay (NCI)
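Grown in 96-well plates, cells were treated for 48 hours with each compound at five concentrations. Insufficient inhibition: endpoint recorded as highest concentration tested. At the TGI there is no net growth.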

What was measured:
Assay in all cases: DTP human tumour cell line panel, 48 h
786-0 renal = system: 786-0 renal
A498 renal = system: A498 renal
A549 NSCLC = system: A549 NSCLC
ACHN renal = system: ACHN renal
CAKI-1 renal = system: CAKI-1 renal
CCRF-CEM leukemia = system: CCRF-CEM leukemia
COLO 205 colon = system: COLO 205 colon
DLD-1 colon = system: DLD-1 colon
DMS 114 small cell lung = system: DMS 114 small cell lung
DMS 273 small cell lung = system: DMS 273 small cell lung
EKVX NSCLC = system: EKVX NSCLC
HCC-2998 colon = system: HCC-2998 colon
HCT-116 colon = system: HCT-116 colon
HCT-15 colon = system: HCT-15 colon
HOP-62 NSCLC = system: HOP-62 NSCLC
HOP-92 NSCLC = system: HOP-92 NSCLC
HT29 colon = system: HT29 colon
IGROV1 ovarian = system: IGROV1 ovarian
K-562 leukemia = system: K-562 leukemia
KM12 colon = system: KM12 colon
KM20L2 colon = system: KM20L2 colon
LOX IMVI melanoma = system: LOX IMVI melanoma
LXFL 529 NSCLC = system: LXFL 529 NSCLC
M14 melanoma = system: M14 melanoma
M19-MEL melanoma = system: M19-MEL melanoma
MALME-3M melanoma = system: MALME-3M melanoma
MOLT-4 leukemia = system: MOLT-4 leukemia
NCI-H23 lung = system: NCI-H23 lung
NCI-H460 lung = system: NCI-H460 lung
NCI-H522 lung = system: NCI-H522 lung
OVCAR-3 ovarian = system: OVCAR-3 ovarian
OVCAR-4 ovarian = system: OVCAR-4 ovarian
OVCAR-5 ovarian = system: OVCAR-5 ovarian
OVCAR-8 ovarian = system: OVCAR-8 ovarian
RPMI-8226 leukemia = system: RPMI-8226 leukemia
RXF 393 renal = system: RXF 393 renal
SF-268 CNS = system: SF-268 CNS
SF-295 CNS = system: SF-295 CNS
SF-539 CNS = system: SF-539 CNS
SK-MEL-2 melanoma = system: SK-MEL-2 melanoma
SK-MEL-28 melanoma = system: SK-MEL-28 melanoma
SK-MEL-5 melanoma = system: SK-MEL-5 melanoma
SK-OV-3 ovarian = system: SK-OV-3 ovarian
SN12C renal = system: SN12C renal
SNB-19 CNS = system: SNB-19 CNS
SNB-75 CNS = system: SNB-75 CNS
SNB-78 CNS = system: SNB-78 CNS
SW-620 colon = system: SW-620 colon
TK-10 renal = system: TK-10 renal
U251 CNS = system: U251 CNS
UACC-257 melanoma = system: UACC-257 melanoma
UACC-62 melanoma = system: UACC-62 melanoma
UO-31 renal = system: UO-31 renal
XF 498 CNS = system: XF 498 CNS
HL-60(TB) leukemia = system: HL-60(TB) leukemia
NCI-H226 lung = system: NCI-H226 lung
SR leukemia = system: SR leukemia

## Clc1ccc(-c2nnc3c4nnc(-c5ccc(Cl)cc5Cl)n4c4ccccc4n23)c(Cl)c1
786-0 renal
  TGI: > 100 µM
A498 renal
  TGI: > 100 µM
A549 NSCLC
  TGI: > 100 µM
ACHN renal
  TGI: > 100 µM
CAKI-1 renal
  TGI: > 100 µM
CCRF-CEM leukemia
  TGI: > 100 µM
COLO 205 colon
  TGI: > 100 µM
DLD-1 colon
  TGI: > 100 µM
DMS 114 small cell lung
  TGI: > 100 µM
DMS 273 small cell lung
  TGI: > 100 µM
EKVX NSCLC
  TGI: > 100 µM
HCC-2998 colon
  TGI: > 100 µM
HCT-116 colon
  TGI: > 100 µM
HCT-15 colon
  TGI: > 100 µM
HOP-62 NSCLC
  TGI: > 100 µM
HOP-92 NSCLC
  TGI: > 100 µM
HT29 colon
  TGI: > 100 µM
IGROV1 ovarian
  TGI: > 100 µM
K-562 leukemia
  TGI: > 100 µM
KM12 colon
  TGI: > 100 µM
KM20L2 colon
  TGI: > 100 µM
LOX IMVI melanoma
  TGI: > 100 µM
LXFL 529 NSCLC
  TGI: > 100 µM
M14 melanoma
  TGI: > 100 µM
M19-MEL melanoma
  TGI: > 100 µM
MALME-3M melanoma
  TGI: > 100 µM
MOLT-4 leukemia
  TGI: > 100 µM
NCI-H23 lung
  TGI: > 100 µM
NCI-H460 lung
  TGI: > 100 µM
NCI-H522 lung
  TGI: > 100 µM
OVCAR-3 ovarian
  TGI: > 100 µM
OVCAR-4 ovarian
  TGI: > 100 µM
OVCAR-5 ovarian
  TGI: > 100 µM
OVCAR-8 ovarian
  TGI: > 100 µM
RPMI-8226 leukemia
  TGI: > 100 µM
RXF 393 renal
  TGI: > 100 µM
SF-268 CNS
  TGI: > 100 µM
SF-295 CNS
  TGI: > 100 µM
SF-539 CNS
  TGI: > 100 µM
SK-MEL-2 melanoma
  TGI: > 100 µM
SK-MEL-28 melanoma
  TGI: > 100 µM
SK-MEL-5 melanoma
  TGI: > 100 µM
SK-OV-3 ovarian
  TGI: > 100 µM
SN12C renal
  TGI: > 100 µM
SNB-19 CNS
  TGI: > 100 µM
SNB-75 CNS
  TGI: 63.2 µM
SNB-78 CNS
  TGI: > 100 µM
SW-620 colon
  TGI: > 100 µM
TK-10 renal
  TGI: > 100 µM
U251 CNS
  TGI: > 100 µM
UACC-257 melanoma
  TGI: > 100 µM
UACC-62 melanoma
  TGI: > 100 µM
UO-31 renal
  TGI: > 100 µM
XF 498 CNS
  TGI: > 100 µM

## CC1(C)CC(C)(C)CC(O)(C2(O)CC(C)(C)CC(C)(C)C2)C1
786-0 renal
  TGI: > 100 µM
A549 NSCLC
  TGI: > 100 µM
ACHN renal
  TGI: > 100 µM
CCRF-CEM leukemia
  TGI: > 100 µM
COLO 205 colon
  TGI: > 100 µM
DMS 114 small cell lung
  TGI: > 100 µM
DMS 273 small cell lung
  TGI: > 100 µM
EKVX NSCLC
  TGI: > 100 µM
HCC-2998 colon
  TGI: > 100 µM
HCT-116 colon
  TGI: > 100 µM
HCT-15 colon
  TGI: > 100 µM
HL-60(TB) leukemia
  TGI: > 100 µM
HOP-62 NSCLC
  TGI: > 100 µM
HT29 colon
  TGI: > 100 µM
IGROV1 ovarian
  TGI: > 100 µM
K-562 leukemia
  TGI: > 100 µM
KM12 colon
  TGI: > 100 µM
KM20L2 colon
  TGI: > 100 µM
LOX IMVI melanoma
  TGI: > 100 µM
LXFL 529 NSCLC
  TGI: > 100 µM
M14 melanoma
  TGI: > 100 µM
M19-MEL melanoma
  TGI: > 100 µM
MALME-3M melanoma
  TGI: > 100 µM
MOLT-4 leukemia
  TGI: > 100 µM
NCI-H226 lung
  TGI: > 100 µM
NCI-H23 lung
  TGI: > 100 µM
NCI-H460 lung
  TGI: > 100 µM
NCI-H522 lung
  TGI: > 100 µM
OVCAR-3 ovarian
  TGI: > 100 µM
OVCAR-8 ovarian
  TGI: > 100 µM
RPMI-8226 leukemia
  TGI: > 100 µM
SF-268 CNS
  TGI: > 100 µM
SF-295 CNS
  TGI: > 100 µM
SF-539 CNS
  TGI: > 100 µM
SK-MEL-28 melanoma
  TGI: > 100 µM
SK-MEL-5 melanoma
  TGI: > 100 µM
SK-OV-3 ovarian
  TGI: > 100 µM
SN12C renal
  TGI: > 100 µM
SNB-19 CNS
  TGI: > 100 µM
SR leukemia
  TGI: > 100 µM
SW-620 colon
  TGI: > 100 µM
TK-10 renal
  TGI: > 100 µM
U251 CNS
  TGI: > 100 µM
UACC-257 melanoma
  TGI: > 100 µM
UACC-62 melanoma
  TGI: > 100 µM
UO-31 renal
  TGI: > 100 µM
XF 498 CNS
  TGI: > 100 µM

## COc1ccc(C(=O)N2c3ccccc3N(C)n3cccc3C2CC(=O)O)cc1 (centres undefined)
786-0 renal
  TGI: > 100 µM
A498 renal
  TGI: > 100 µM
A549 NSCLC
  TGI: > 100 µM
ACHN renal
  TGI: > 100 µM
CAKI-1 renal
  TGI: > 100 µM
CCRF-CEM leukemia
  TGI: > 100 µM
COLO 205 colon
  TGI: > 100 µM
DLD-1 colon
  TGI: > 100 µM
DMS 114 small cell lung
  TGI: > 100 µM
DMS 273 small cell lung
  TGI: > 100 µM
EKVX NSCLC
  TGI: > 100 µM
HCC-2998 colon
  TGI: > 100 µM
HCT-15 colon
  TGI: > 100 µM
HL-60(TB) leukemia
  TGI: > 100 µM
HOP-62 NSCLC
  TGI: > 100 µM
HOP-92 NSCLC
  TGI: > 100 µM
HT29 colon
  TGI: > 100 µM
IGROV1 ovarian
  TGI: > 100 µM
K-562 leukemia
  TGI: > 100 µM
KM12 colon
  TGI: > 100 µM
KM20L2 colon
  TGI: > 100 µM
LOX IMVI melanoma
  TGI: > 100 µM
LXFL 529 NSCLC
  TGI: > 100 µM
M14 melanoma
  TGI: > 100 µM
M19-MEL melanoma
  TGI: > 100 µM
MALME-3M melanoma
  TGI: > 100 µM
MOLT-4 leukemia
  TGI: > 100 µM
NCI-H226 lung
  TGI: > 100 µM
NCI-H23 lung
  TGI: > 100 µM
NCI-H460 lung
  TGI: > 100 µM
NCI-H522 lung
  TGI: > 100 µM
OVCAR-3 ovarian
  TGI: > 100 µM
OVCAR-4 ovarian
  TGI: > 100 µM
OVCAR-5 ovarian
  TGI: > 100 µM
OVCAR-8 ovarian
  TGI: > 100 µM
RPMI-8226 leukemia
  TGI: > 100 µM
RXF 393 renal
  TGI: > 100 µM
SF-268 CNS
  TGI: > 100 µM
SF-295 CNS
  TGI: > 100 µM
SF-539 CNS
  TGI: > 100 µM
SK-MEL-2 melanoma
  TGI: > 100 µM
SK-MEL-28 melanoma
  TGI: > 100 µM
SK-MEL-5 melanoma
  TGI: > 100 µM
SK-OV-3 ovarian
  TGI: > 100 µM
SN12C renal
  TGI: > 100 µM
SNB-19 CNS
  TGI: > 100 µM
SNB-75 CNS
  TGI: > 100 µM
SNB-78 CNS
  TGI: > 100 µM
SW-620 colon
  TGI: > 100 µM
TK-10 renal
  TGI: > 100 µM
UACC-257 melanoma
  TGI: > 100 µM
UACC-62 melanoma
  TGI: > 100 µM
UO-31 renal
  TGI: > 100 µM
